Measured values from patent publication US20240294541A1, “COMPOUNDS CONSTITUTING C20-MODIFIED SALINOMYCIN DERIVATIVES, A METHOD FOR OBTAINING THE SAME, A COMPOSITION CONTAINING THE SAME AND A USE OF SAID COMPOUNDS” (FILECLO SPOLKA Z OGRANICZONA ODPOWIEDZIALNOSCIA, priority 2021, published 2024).

Legend:
Format in all cases: cell-based
[1] = test system: A2780Cis (cisplatin-resistant human ovarian cancer); assay: In vitro cytotoxicity, SRB assay, A2780Cis; details: for IC50: Homo sapiens, A2780cis, read-out: IC50 (nM) A2780Cis
Hs294T (human melanoma) = assay: cells; details: Table 4; for IC50: Hs 294T, Hs294T human melanoma cells, read-out: IC50 (nM) Hs294T; for SI Hs294T: selectivity coefficient vs normal BALB/3T3 fibroblasts
[2] = test system: PLC/PRF/5 (human liver cancer); assay: cells; details: Table 4; for IC50: PLC/PRF/5 human liver cancer cells, read-out: IC50 (nM) PLC/PRF/5; for SI PLC/PRF/5: selectivity coefficient vs normal BALB/3T3 fibroblasts
[3] = test system: SNU-16 (human gastric cancer); assay: cells; details: Table 4; for IC50: SNU-16 human gastric cancer cells, read-out: IC50 (nM) SNU-16; for SI SNU-16: selectivity coefficient vs normal BALB/3T3 fibroblasts
[4] = test system: MIA PaCa-2 (human pancreatic cancer); assay: cells; details: Table 4; for IC50: MIA PaCa-2 human pancreatic cancer cells, read-out: IC50 (nM) MIA PaCa-2; for SI MIA PaCa-2: selectivity coefficient vs normal BALB/3T3 fibroblasts
[5] = test system: BALB/3T3 (normal mouse fibroblasts); assay: In vitro cytotoxicity, SRB assay, normal BALB/3T3 fibroblasts; details: Table 4; BALB/3T3 normal mouse fibroblasts; read-out: IC50 (nM) BALB3T3 normal cells
[6] = test system: MV-4-11 (human biphenotypic leukaemia); assay: In vitro cytotoxicity, MTT assay, MV-4-11; details: for IC50: Homo sapiens, MV4-11, read-out: IC50 (nM) MV4-11
[7] = test system: NCI-H358 (human lung cancer); assay: cells; details: Table 4; for IC50: NCI-H358 human lung cancer cells, read-out: IC50 (nM) NCI-H358; for SI NCI-H358: selectivity coefficient vs normal BALB/3T3 fibroblasts

| SMILES | SI A2780Cis [1] | IC50 [1] [nM] | IC50 (Hs294T (human melanoma)) [nM] | SI Hs294T (Hs294T (human melanoma)) | IC50 [2] [nM] | SI PLC/PRF/5 [2] | IC50 [3] [nM] | SI SNU-16 [3] | IC50 [4] [nM] | SI MIA PaCa-2 [4] | IC50 [5] [nM] | SI MV4-11 [6] | IC50 [6] [nM] | IC50 [7] [nM] | SI NCI-H358 [7] |
| --- | --- | --- | --- | --- | --- | --- | --- | --- | --- | --- | --- | --- | --- | --- | --- |
| CC[C@@H](C(=O)[C@@H](C)[C@@H](O)[C@H](C)[C@@H]1O[C@@H]([C@@H](CC)C(=O)O)CC[C@@H]1C)[C@H]1O[C@]2(C=C[C@@H](NC(=O)OCCCCCCCl)[C@]3(CC[C@@](C)([C@H]4CC[C@](O)(CC)[C@H](C)O4)O3)O2)[C@H](C)C[C@@H]1C [FLC-00444-1•Na] | 98.9 | 1.5 | 627 | 0.2 | 4 | 36.9 | 105 | 1.4 | 21.3 | 6.9 | 148 | 98.9 | 1.5 | 53.7 | 2.75 |
| CC[C@@H](C(=O)[C@@H](C)[C@@H](O)[C@H](C)[C@@H]1O[C@@H]([C@@H](CC)C(=O)O)CC[C@@H]1C)[C@H]1O[C@]2(C=C[C@@H](NC(=O)OCCOCc3ccccc3)[C@]3(CC[C@@](C)([C@H]4CC[C@](O)(CC)[C@H](C)O4)O3)O2)[C@H](C)C[C@@H]1C [FLC-00451-1•Na] | 96.0 | 2.13 | 542 | 0.4 | 42 | 4.9 | 126 | 1.6 | 14.7 | 13.9 | 204 | 127.9 | 1.6 | 307 | 0.67 |
| CC[C@@H](C(=O)[C@@H](C)[C@@H](O)[C@H](C)[C@@H]1O[C@@H]([C@@H](CC)C(=O)O)CC[C@@H]1C)[C@H]1O[C@]2(C=C[C@@H](NC(=O)OCCOCCCl)[C@]3(CC[C@@](C)([C@H]4CC[C@](O)(CC)[C@H](C)O4)O3)O2)[C@H](C)C[C@@H]1C [FLC-00454-1•Na] | 58.9 | 5.32 | 1040 | 0.3 | 63.1 | 5.0 | 103 | 3.0 | 45.2 | 6.9 | 313 | 17.8 | 17.6 | 434 | 0.72 |
| CC[C@@H](C(=O)[C@@H](C)[C@@H](O)[C@H](C)[C@@H]1O[C@@H]([C@@H](CC)C(=O)O)CC[C@@H]1C)[C@H]1O[C@]2(C=C[C@@H](NC(=O)C3CCCC3)[C@]3(CC[C@@](C)([C@H]4CC[C@](O)(CC)[C@H](C)O4)O3)O2)[C@H](C)C[C@@H]1C [FLC-00455-1•Na] | 232.6 | 1.39 | 140 | 2.3 | 60.7 | 5.3 | 165 | 2.0 | 33 | 9.8 | 323 | 112.3 | 2.87 | 54.5 | 5.91 |
| CC[C@@H](C(=O)[C@@H](C)[C@@H](O)[C@H](C)[C@@H]1O[C@@H]([C@@H](CC)C(=O)O)CC[C@@H]1C)[C@H]1O[C@]2(C=C[C@@H](NC(=O)C(=O)NCCCc3ccccc3)[C@]3(CC[C@@](C)([C@H]4CC[C@](O)(CC)[C@H](C)O4)O3)O2)[C@H](C)C[C@@H]1C [FLC-00458-1•Na] | 29.6 | 24.5 | 1590 | 0.5 | 84.4 | 8.6 | 323 | 2.2 | 61.9 | 11.7 | 727 | 31.3 | 23.2 | 368 | 1.97 |
| CC[C@@H](C(=O)[C@@H](C)[C@@H](O)[C@H](C)[C@@H]1O[C@@H]([C@@H](CC)C(=O)O)CC[C@@H]1C)[C@H]1O[C@]2(C=C[C@@H](NC(=O)OCCOC)[C@]3(CC[C@@](C)([C@H]4CC[C@](O)(CC)[C@H](C)O4)O3)O2)[C@H](C)C[C@@H]1C [FLC-00459-1•Na] | 30.7 | 34.7 | 786 | 1.4 | 92.2 | 11.6 | 535 | 2.0 | 78.3 | 13.6 | 1070 | 31.8 | 33.6 | 531 | 2.01 |
| CC[C@@H](C(=O)[C@@H](C)[C@@H](O)[C@H](C)[C@@H]1O[C@@H]([C@@H](CC)C(=O)O)CC[C@@H]1C)[C@H]1O[C@]2(C=C[C@@H](NC(=O)OCCOc3ccccc3)[C@]3(CC[C@@](C)([C@H]4CC[C@](O)(CC)[C@H](C)O4)O3)O2)[C@H](C)C[C@@H]1C [FLC-00460-1•Na] | 94.4 | 0.98 | 309 | 0.3 | 17.6 | 5.3 | 130 | 0.7 | 13.6 | 6.8 | 92.8 | 50.0 | 1.86 | 282 | 0.33 |
| CC[C@@H](C(=O)[C@@H](C)[C@@H](O)[C@H](C)[C@@H]1O[C@@H]([C@@H](CC)C(=O)O)CC[C@@H]1C)[C@H]1O[C@]2(C=C[C@@H](NC(=O)c3ccccc3Cl)[C@]3(CC[C@@](C)([C@H]4CC[C@](O)(CC)[C@H](C)O4)O3)O2)[C@H](C)C[C@@H]1C [FLC-00462-1•Na] | 24.5 | 22.5 | 1810 | 0.3 | 63.8 | 8.6 | 339 | 1.6 | 52 | 10.6 | 552 | 40.4 | 13.7 | 397 | 1.39 |
